Measurements published in patent US7662576B2, “Method for identifying ester coolers” (International Flavors & Fragrances Inc., priority 2007, dated 2010).
“Also recorded” adds a separate entry of the source.

Columns and labels:
[1] = biological target: mouse TRPA1 channel (Mus musculus, UniProt Q8BLA8); conditions: literature; cited from earlier work
[2] = cited from earlier work; for Relative Cooling Strengths: compared to (−)-Menthol at 100, source Erman (2003); for relative cooling strength: with respect to WS-3 at 10.0, U.S. Patent Application No. 20050265930
[3] = biological target: T1, human TRPA1 (Homo sapiens, UniProt O75762); test: TRPA1 FLIPR analysis (calcium, Fluo4NW) in TREX FLP-IN HEK 293 cells expressing TRPA1; assay type: cell-based; conditions: result in words
T1 construct: expressed in transfected cells
Experimental: Preferred assays to measure TRPA1 channel activity are cell-based assays that utilize cells loaded with ion or voltage-sensitive dyes to report TRPA1 activation. By way of illustration, an inducible TRPA1 cell line was created by stably introducing TRPA1 into TREX-FLPN cells (INVITROGEN). […] In this assay, cells were incubated with a suitable flouroscent dye. […] After obtaining a baseline, various cooling compounds were added and fluorescence measured for several minutes.
(§1) Materials. Fluo4NW solution was prepared by solubilizing one Fluo4NW bottle (Molecular Probes #F36206, component A) in 16 mL of Tyrode buffer (pH 7.4, 130 mM NaCl, 5 mM KCl, 2 mM CaCl2, 1 mM MgCl2, 5 mM NaHCO3, 20 mM HEPES). To the resulting solution was then added 100 μL of water-soluble probenecid (Molecular Probes #F36206, component B).
(§2) Cell Preparation. Cells were trypsinized and 10,000 cells were dispensed per well in poly-lysine-coated, black, clear-bottom 384-well plates (35 μL/well in DMEM without antibiotics). Cells were incubated for 24 hours at 37° C. in 5% CO2. The medium was completely eliminated and 20 (TRPA1) or 40 (TRPM8) μL/well of Fluo4NW solution was added to the plates. Cells were incubated for 1 hour at room temperature protected from light. Two addition kinetic measurements were recorded on the instrument for 7.5 (TRPA1) or 15 (TRPM8) minutes.
NotI and XhoI restriction sites were also added to the ends to facilitate cloning into expression vectors.
The TRPA1 cDNA was cloned into two expression vectors, pcDNA5/FRT and pcDNA5/FRT/TO (INVITROGEN), using the NotI and XhoI sites. The former vector allows for constitutive expression in mammalian cells the latter for inducible expression in same. Restriction digests, ligations and transformations were performed using routine molecular biological techniques, wherein restriction enzymes were obtained from New England Biolabs, a rapid ligation kit from Roche and competent cells (Max Efficiency DH5 t1 phage-resistant) from INVITROGEN. […]

[4] = biological target: TRPM8 (Homo sapiens, UniProt Q7Z2W7); test: TRPM8 FLIPR analysis (calcium, Fluo4NW); assay type: cell-based; conditions: for comparison of TRPM8 and TRPA1 response / response of TRPM8 channel: FLIPR; for comparison of TRPM8 and TRPA1 response: TRPM8 versus TRPA1; for response of TRPM8 channel: result in words; for temporal response: FIG. 2
Experimental: as §1, §2

[5] = test system: TRPA1; conditions: literature; cited from earlier work
[6] = biological target: TRPM8 (Mus musculus, UniProt Q8R4D5); conditions: Behrendt et al. (2004); cited from earlier work
Sequence of TRPM8 (Mus musculus, UniProt Q8R4D5) (Q8R4D5 whole entry): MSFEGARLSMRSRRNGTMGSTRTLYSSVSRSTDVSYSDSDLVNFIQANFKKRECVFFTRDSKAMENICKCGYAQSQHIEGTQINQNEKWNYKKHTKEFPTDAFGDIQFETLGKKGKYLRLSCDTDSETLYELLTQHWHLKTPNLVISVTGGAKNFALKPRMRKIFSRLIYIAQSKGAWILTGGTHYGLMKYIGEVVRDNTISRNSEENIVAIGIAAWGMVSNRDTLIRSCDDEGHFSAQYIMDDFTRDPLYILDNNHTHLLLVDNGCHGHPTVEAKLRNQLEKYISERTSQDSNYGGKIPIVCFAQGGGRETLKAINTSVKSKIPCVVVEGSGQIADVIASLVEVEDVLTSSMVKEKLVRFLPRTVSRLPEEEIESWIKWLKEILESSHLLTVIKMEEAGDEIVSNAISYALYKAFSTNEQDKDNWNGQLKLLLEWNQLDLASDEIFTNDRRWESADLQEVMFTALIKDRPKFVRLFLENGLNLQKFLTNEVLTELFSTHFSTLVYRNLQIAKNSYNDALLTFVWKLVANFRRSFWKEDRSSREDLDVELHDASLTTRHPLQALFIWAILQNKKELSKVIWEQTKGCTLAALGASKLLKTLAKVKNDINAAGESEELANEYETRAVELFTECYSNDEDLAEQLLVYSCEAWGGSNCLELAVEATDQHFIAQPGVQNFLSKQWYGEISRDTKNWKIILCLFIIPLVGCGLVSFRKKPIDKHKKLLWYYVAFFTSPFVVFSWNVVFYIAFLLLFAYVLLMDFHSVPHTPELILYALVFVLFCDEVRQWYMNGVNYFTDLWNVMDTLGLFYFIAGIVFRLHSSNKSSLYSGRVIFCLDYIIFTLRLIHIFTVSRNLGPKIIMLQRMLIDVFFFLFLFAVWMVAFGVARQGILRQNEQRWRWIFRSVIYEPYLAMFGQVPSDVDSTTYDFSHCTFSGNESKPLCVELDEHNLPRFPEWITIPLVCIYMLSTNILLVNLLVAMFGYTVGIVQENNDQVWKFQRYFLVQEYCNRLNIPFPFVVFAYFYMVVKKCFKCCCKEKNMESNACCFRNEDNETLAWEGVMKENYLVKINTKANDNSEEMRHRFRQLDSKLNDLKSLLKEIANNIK

Sequence of TRPM8 (Homo sapiens, UniProt Q7Z2W7) (Q7Z2W7 whole entry, species assumed): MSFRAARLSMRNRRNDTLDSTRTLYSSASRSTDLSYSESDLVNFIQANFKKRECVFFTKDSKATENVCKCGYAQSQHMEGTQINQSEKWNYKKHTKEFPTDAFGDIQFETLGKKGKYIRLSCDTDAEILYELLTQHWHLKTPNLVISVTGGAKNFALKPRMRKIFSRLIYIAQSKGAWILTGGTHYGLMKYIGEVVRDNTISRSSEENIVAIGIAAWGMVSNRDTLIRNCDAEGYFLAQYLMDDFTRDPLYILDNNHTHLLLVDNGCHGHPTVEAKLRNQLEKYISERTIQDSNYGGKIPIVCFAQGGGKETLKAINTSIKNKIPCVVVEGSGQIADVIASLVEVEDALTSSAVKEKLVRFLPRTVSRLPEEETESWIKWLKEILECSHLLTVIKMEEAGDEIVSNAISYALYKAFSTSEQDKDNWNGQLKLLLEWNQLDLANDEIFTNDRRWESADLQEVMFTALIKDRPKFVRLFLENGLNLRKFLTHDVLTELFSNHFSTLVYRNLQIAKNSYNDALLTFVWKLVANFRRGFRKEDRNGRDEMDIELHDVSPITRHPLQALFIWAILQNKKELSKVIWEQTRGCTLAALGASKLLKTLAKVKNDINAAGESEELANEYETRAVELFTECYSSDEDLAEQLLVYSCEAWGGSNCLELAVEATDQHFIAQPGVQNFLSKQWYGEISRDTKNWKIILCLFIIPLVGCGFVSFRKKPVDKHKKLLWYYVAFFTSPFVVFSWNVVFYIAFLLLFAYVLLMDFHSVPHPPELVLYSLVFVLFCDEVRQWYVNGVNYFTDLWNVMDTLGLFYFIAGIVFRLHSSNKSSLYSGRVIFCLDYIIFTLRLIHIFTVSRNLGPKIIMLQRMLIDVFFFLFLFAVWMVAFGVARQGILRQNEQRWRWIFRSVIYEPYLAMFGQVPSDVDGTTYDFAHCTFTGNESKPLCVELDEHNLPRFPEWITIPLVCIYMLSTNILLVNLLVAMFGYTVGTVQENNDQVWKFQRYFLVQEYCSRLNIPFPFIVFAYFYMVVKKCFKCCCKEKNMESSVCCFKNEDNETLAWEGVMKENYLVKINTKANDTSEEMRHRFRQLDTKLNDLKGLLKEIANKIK
T1 sequence (O75762 whole entry): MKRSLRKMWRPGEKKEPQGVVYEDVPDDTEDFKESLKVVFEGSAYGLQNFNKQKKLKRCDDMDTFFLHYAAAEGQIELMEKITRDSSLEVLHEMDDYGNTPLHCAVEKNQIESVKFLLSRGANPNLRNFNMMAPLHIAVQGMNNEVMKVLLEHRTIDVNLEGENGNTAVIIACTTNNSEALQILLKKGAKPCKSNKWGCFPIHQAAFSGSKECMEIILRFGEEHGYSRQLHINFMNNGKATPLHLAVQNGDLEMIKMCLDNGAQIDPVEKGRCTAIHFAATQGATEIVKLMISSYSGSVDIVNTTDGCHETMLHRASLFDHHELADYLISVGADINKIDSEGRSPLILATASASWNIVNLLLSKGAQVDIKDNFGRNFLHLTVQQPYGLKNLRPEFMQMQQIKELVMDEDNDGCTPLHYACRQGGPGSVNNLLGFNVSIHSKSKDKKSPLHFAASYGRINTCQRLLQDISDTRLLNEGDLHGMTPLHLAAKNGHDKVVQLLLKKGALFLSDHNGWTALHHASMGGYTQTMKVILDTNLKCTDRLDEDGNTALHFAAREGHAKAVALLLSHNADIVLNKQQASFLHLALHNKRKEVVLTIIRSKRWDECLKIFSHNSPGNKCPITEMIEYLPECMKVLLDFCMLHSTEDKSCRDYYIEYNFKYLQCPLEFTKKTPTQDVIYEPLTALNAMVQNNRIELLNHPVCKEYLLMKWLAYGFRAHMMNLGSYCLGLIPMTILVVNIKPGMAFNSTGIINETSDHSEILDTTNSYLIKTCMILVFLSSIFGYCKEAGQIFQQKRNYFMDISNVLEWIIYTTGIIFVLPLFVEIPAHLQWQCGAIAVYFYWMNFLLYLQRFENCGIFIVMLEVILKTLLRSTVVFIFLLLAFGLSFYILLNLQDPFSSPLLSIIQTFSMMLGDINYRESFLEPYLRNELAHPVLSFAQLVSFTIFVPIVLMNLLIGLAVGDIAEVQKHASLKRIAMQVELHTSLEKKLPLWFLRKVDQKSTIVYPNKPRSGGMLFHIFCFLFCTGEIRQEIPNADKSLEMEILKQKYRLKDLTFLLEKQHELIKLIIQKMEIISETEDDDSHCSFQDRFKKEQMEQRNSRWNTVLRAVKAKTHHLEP
Sequence of mouse TRPA1 channel (Q8BLA8 whole entry): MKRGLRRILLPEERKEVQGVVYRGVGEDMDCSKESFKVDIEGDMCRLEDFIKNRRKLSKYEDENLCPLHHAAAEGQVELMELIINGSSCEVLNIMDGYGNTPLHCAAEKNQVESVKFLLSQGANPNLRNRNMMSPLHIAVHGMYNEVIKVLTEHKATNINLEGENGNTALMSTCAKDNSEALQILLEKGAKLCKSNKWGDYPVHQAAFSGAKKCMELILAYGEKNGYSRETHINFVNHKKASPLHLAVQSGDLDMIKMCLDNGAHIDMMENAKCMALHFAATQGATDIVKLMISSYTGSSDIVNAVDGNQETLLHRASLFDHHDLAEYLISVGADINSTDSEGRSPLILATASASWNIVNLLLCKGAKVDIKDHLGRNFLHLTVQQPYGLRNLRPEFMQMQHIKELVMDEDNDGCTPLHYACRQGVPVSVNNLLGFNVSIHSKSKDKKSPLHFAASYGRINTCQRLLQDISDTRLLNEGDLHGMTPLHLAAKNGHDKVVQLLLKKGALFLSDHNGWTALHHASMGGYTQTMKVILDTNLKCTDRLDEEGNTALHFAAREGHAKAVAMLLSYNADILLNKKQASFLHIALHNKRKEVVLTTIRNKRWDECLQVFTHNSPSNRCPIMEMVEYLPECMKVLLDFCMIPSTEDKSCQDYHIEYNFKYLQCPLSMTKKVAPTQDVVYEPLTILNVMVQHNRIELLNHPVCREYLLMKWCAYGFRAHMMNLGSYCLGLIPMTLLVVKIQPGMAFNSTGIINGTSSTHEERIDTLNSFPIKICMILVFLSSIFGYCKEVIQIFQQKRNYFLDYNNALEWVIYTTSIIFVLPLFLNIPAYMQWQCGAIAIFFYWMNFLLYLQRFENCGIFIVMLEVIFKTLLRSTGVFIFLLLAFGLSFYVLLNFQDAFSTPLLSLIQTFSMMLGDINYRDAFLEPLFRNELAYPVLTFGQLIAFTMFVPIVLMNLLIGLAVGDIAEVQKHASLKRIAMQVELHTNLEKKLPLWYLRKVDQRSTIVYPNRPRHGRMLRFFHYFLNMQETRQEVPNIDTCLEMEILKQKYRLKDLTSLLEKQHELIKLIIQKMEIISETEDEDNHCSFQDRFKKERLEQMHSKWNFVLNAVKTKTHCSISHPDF

Question: For `CCCCC[C@H](O)CC(=O)CCc1ccc(O)c(OC)c1` [gingerol], which “activation of mouse TRPA1 channel” value [1] is on record?
Answer: activated

Question: With `O=CC=Cc1ccccc1` [cinnamaldehyde] as the compound, how does the “activation of mouse TRPA1 channel” value [1] read?
Answer: activated

Question: Which “Relative Cooling Strengths” value [2] does the source give for `CC1CCC(C(C)C)C(C(=O)NC(C)(C)C)C1` (stereo not shown) [WS-14, N-t-butyl-p-menthane-3-carboxamide] here?
Answer: 75

Question: What about the relative cooling strength [2] of the same compound?
Answer: about 5.0

Question: For (−)-isopulegol [Coolact P], which “Relative Cooling Strengths” value [2] is on record?
Answer: 25

Question: Which “Relative Cooling Strengths” value [2] does the source give for `CC(C)[C@H]1CC[C@@H](C)C[C@@H]1O` [(−)-Isomenthol] here?
Answer: 3

Question: With “Ethyl 3-(p-menthane-3-carboxamido)acetate [WS-5]” as the compound, how does the “response of TRPA1” value [3] read?
Answer: responded

Question: What about the “Relative Cooling Strengths” value [2] of the same compound?
Answer: 400

Question: And the relative cooling strength [2]?
Answer: about 16.7

Question: And the “comparison of TRPM8 and TRPA1 response” value [4]?
Answer: TRPM8 responding better

Question: What about the “response of TRPM8 channel” value [4] of the same compound?
Answer: responded

Question: For `CNC(=O)C1C(C)CCCC1(C)C` (stereo not shown) [N,2,2,6-Tetramethylcyclohexane-1-carboxamide], which relative cooling strength [2] is on record?
Answer: about 1.0

Question: Which “Relative Cooling Strengths” value [2] does the source give for `CC1CCC(C(C)C)C(O)C1` (single isomer, unassigned; (+)) [(+)-Menthol] here?
Answer: 27

Question: Which “activation of TRPA1” value [5] does the source give for `NC(=O)CI` [iodoacetamide] here?
Answer: bind and activate TRPA1

Question: Which results are given for `CC(=O)CC(=O)OC1CC(C)CCC1C(C)C` (stereo not shown) [Ultracool 7]?
Answer: response of TRPA1 [3]: responded to a wide range of concentrations; response of TRPM8 channel [4]: did not respond well; also recorded: no response

Question: With `C=CCN=C=S` [mustard oil, allyl isothiocyanate] as the compound, how does the “activation of TRPA1” value [5] read?
Answer: activates TRPA1

Question: With `CC(C)[C@@H]1CC[C@@H](C)C[C@@H]1O` [(+)-Neomenthol] as the compound, how does the “Relative Cooling Strengths” value [2] read?
Answer: 32

Question: Which “Relative Cooling Strengths” value [2] does the source give for (+)-Neoisomenthol here?
Answer: 3

Question: Which “Relative Cooling Strengths” value [2] does the source give for `CC1CCC(C(C)C)C(C(=O)OCCO)C1` (stereo not shown) [WS-4, Ethyleneglycol p-menthane-3-carboxylate] here?
Answer: 23

Question: For `CC1CCC(C(C)C)C(O)C1` (single isomer, unassigned; (-)) [(−)-Menthol], which “Relative Cooling Strengths” value [2] is on record?
Answer: 100

Question: With `CC(C)[C@@H]1CC[C@@H](C)C[C@H]1OC(=O)CCCC(=O)O` [monomenthyl glutarate] as the compound, how does the relative cooling strength [2] read?
Answer: about 3.5

Question: For `CC(C)[C@@H]1CC[C@@H](C)C[C@H]1OCC(O)CO` (mixture of isomers) [(2RS)-3-1-menthoxy)propane-1,2-diol], which “Relative Cooling Strengths” value [2] is on record?
Answer: 22.5

Question: With `CCNC(=O)C1CC(C)CCC1C(C)C` (stereo not shown) [WS-3, N-ethyl-p-menthane-3-carboxamide] as the compound, how does the “response of TRPA1” value [3] read?
Answer: responded

Question: And the “Relative Cooling Strengths” value [2]?
Answer: 150

Question: And the relative cooling strength [2]?
Answer: 10.0

Question: What about the “comparison of TRPM8 and TRPA1 response” value [4] of the same compound?
Answer: TRPM8 responding better

Question: And the “response of TRPM8 channel” value [4]?
Answer: responded

Question: For `CC(C)[C@@H]1CC[C@@H](C)C[C@H]1OC[C@@H](O)CO` [(2S)-3-1-menthoxy)propane-1,2-diol], which “Relative Cooling Strengths” value [2] is on record?
Answer: 39.5

Question: Which “Relative Cooling Strengths” value [2] does the source give for `CC(C)[C@@H]1CC[C@@H](C)C[C@H]1OC[C@H](O)CO` [(2R)-3-1-menthoxy)propane-1,2-diol] here?
Answer: 15.8

Question: For `CC(C)[C@@H]1CC[C@@H](C)C[C@H]1O` [Menthol], which temporal response ([4]; TRPM8 FLIPR) is on record?
Answer: quick response with deterioration over time

Question: For (−)-Neoisomenthol, which “Relative Cooling Strengths” value [2] is on record?
Answer: 13

Question: For `CC1CCC(C(C)(C)O)C(O)C1` (stereo not shown) [PMD 38, p-menthane-3,8-diol], which “Relative Cooling Strengths” value [2] is on record?
Answer: 11

Question: Which “Relative Cooling Strengths” value [2] does the source give for `CC1CCC(C(C)C)C(O)C1` (single isomer, unassigned; (-)) [(−)-Neomenthol] here?
Answer: 3

Question: For `CS(=O)(=O)SCCN` [(2-aminoethyl)methanethiosulfonate], which “activation of TRPA1” value [5] is on record?
Answer: bind and activate TRPA1

Question: Which “Relative Cooling Strengths” value [2] does the source give for `CC(C)[C@@H]1CC[C@H](C)C[C@H]1O` [(+)-Isomenthol] here?
Answer: 11

Question: For `COC(=O)c1ccccc1O` [methyl salicylate], which “activation of mouse TRPA1 channel” value [1] is on record?
Answer: activated

Question: Which “response relative to the level of menthol” value [6] does the source give for `CC1CCC(C(C)C)C(OC(=O)C(C)O)C1` (stereo not shown) [Menthyl Lactate] here?
Answer: 50%

Question: What about the relative cooling strength [2] of the same compound?
Answer: about 2.9

Question: What about the temporal response ([4]; TRPM8 FLIPR) of the same compound?
Answer: quick response with a quick loss of signal

Question: What about the Emax ([4]; TRPM8 FLIPR, read-out: response relative to the maximal response of amide coolers) of the same compound?
Answer: ~50%

Question: For “1-glyceryl p-menthane-3-carboxylate [WS-30]”, which “Relative Cooling Strengths” value [2] is on record?
Answer: 22.5

Question: What about the relative cooling strength [2] of the same compound?
Answer: about 1.5

Question: Which “activation of mouse TRPA1 channel” value [1] does the source give for `C=CCc1ccc(O)c(OC)c1` [eugenol] here?
Answer: activated

Question: Which “Relative Cooling Strengths” value [2] does the source give for `CC1CCC(C(C)C)C(OC(=O)C(C)O)C1` (stereo not shown) [Frescolat MGA, menthyl lactate] here?
Answer: 41

Question: Which “response of TRPM8 channel” value [4] does the source give for `CC(C)[C@@H]1CC[C@@H](C)C[C@H]1[O+](C)C(=O)CCCC(=O)O` [Cooler 2] here?
Answer: did not respond well

Question: With `COc1ccc(NC(=O)C2CC(C)CCC2C(C)C)cc1` (stereo not shown) [WS-12, N-(4-methoxyphenyl)-p-menthane-3-carboxamide] as the compound, how does the “Relative Cooling Strengths” value [2] read?
Answer: 150

Question: What does the source list for `CNC(=O)C(C)(C(C)C)C(C)C` [WS-23, 2-Isopropyl-N,2,3-trimethylbutyramide]?
Answer: Relative Cooling Strengths [2]: 75; relative cooling strength [2]: about 5.0
